In brackets after ≈: the same amount, converted by molar mass. Where two headings read alike, the source gives them in different places.
How the values were obtained:
P. aeruginosa ATCC 27853 = experiment: murine septicemia model of infection; type: in vivo; conditions: mice, single SC or IV dose 1 hour after IP challenge, mortality for 7 days; ED50 values are mg/kg
Protocol: (§1) Two models were run on each compound, using E. coli and P. aeruginosa QC bacterial strains. Both studies employed the same design. […] At 1 hour after bacterial challenge, the mice received a single SC or IV dose of vehicle or test substance to assess in vivo anti-infective activity. Mortality was recorded once daily for 7 days after bacterial inoculation.

E. coli ATCC 25922 = experiment: murine septicemia model of infection; type: in vivo; conditions: mice, single SC or IV dose 1 hour after IP challenge, mortality for 7 days; ED50 values are mg/kg
Protocol: as §1

[1] = test system: multidrug-resistant (MDR) K. pneumoniae isolates (n = 102); experiment: MIC by microdilution, clinical isolates; type: cell-based; conditions: for S (%), susceptible isolates: CLSI criteria, tigecycline US FDA criteria
Protocol: (§2) The in vitro activity of representative antibacterial aminoglycoside compounds against a collection of 102 K. pneumoniae clinical isolates collected from January 2006 to October 2007 at the University of Pittsburgh Medical Center, and three Cleveland institutions including University Hospitals Case Medical Center, the Cleveland Clinic, and the Louis Stokes Department of Veterans Affairs Medical Center was analyzed. The 102 K. pneumoniae isolates were selected based on a multidrug-resistant (MDR) phenotype (i.e., resistance to >3 antibiotic classes). Twenty-five isolates were KPC carbapenemase producing (KPC-Kp), and were part of a previous study where the β-lactamase background and clonality were characterized (see Endimiani, A., A. M. Hujer, F. Perez, C. R. Bethel, K. M. Hujer, J. Kroeger, M. Oethinger, D. L. Paterson, M. D. Adams, M. R. Jacobs, D. J. Diekema, G. S. Hall, S. G. Jenkins, L. B. Rice, F. C. Tenover, and R. A. Bonomo. 2009. Characterization of blaKPC-containing Klebsiella pneumoniae isolates detected in different institutions in the Eastern USA. J Antimicrob Chemother 63:427-37).
(§3) Minimum inhibitory concentrations (MICs) were performed by microdilution method using cation-adjusted Mueller-Hinton broth, according to the Clinical and Laboratory Standards Institute (CLSI) criteria (see CLSI. 2006. Methods for dilution antimicrobial susceptibility tests for bacteria that grow aerobically; approved standard-Seventh edition. Clinical and Laboratory Standard Institute, Wayne, Pa. CLSI document M7-A7). These MIC assays were conducted following the same protocol as set forth in Example 110. […] The following ATCC control strains were used: Escherichia coli ATCC 25922, Pseudomonas aeruginosa ATCC 27853, and K. pneumoniae ATCC 700603.

[2] = test system: K. pneumoniae producing KPC (n = 25); experiment: MIC by microdilution, clinical isolates; type: cell-based; conditions: for S (%), susceptible isolates: CLSI criteria, tigecycline US FDA criteria; for MIC50 / MIC90: Klebsiella pneumoniae
Protocol: as §2, §3

[3] = test system: E. coli ATCC 25922 (AECO001); experiment: MIC assay, CLSI broth microdilution; type: cell-based; set-up: MIC AECO001: unit not given here; conditions: for MIC AECO001: Table 3, E. coli ATCC25922
Procedure, shortened: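 CLSI M7-A7 broth microdilution; 2-fold serial dilutions in Mueller Hinton Broth, 1:1 with inoculum; final 5×10^5 CFU/mL; 35° C., 20 h, ambient air. QC strains E. coli ATCC 25922, P. aeruginosa ATCC 27853, S. aureus ATCC 29213.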

[4] = test system: E. coli AECO040, AAC(6′)-I; experiment: MIC assay, aminoglycoside resistant strain; type: cell-based; set-up: unit not given beside the values; conditions: Table 3; E. coli AAC(6′)-I
Protocol: (§4) Minimum inhibitory concentrations (MIC) were determined by reference Clinical and Laboratory Standards Institute (CLSI) broth microdilution methods per M7-A7 [2006]. Quality control ranges utilizing E. coli ATCC 25922, P. aeruginosa ATCC 27853 and S. aureus ATCC 29213, and interpretive criteria for comparator agents were as published in CLSI M100-S17 [2007]. Briefly, serial two-fold dilutions of the test compounds were prepared at 2× concentration in Mueller Hinton Broth. The compound dilutions were mixed in 96-well assay plates in a 1:1 ratio with bacterial inoculum. The inoculum was prepared by suspension of a colony from an agar plate that was prepared the previous day. Bacteria were suspended in sterile saline and added to each assay plate to obtain a final concentration of 5×10^5 CFU/mL. The plates were incubated at 35° C. for 20 hours in ambient air.
(§5) These MIC assays were conducted following the same protocol as set forth in Example 110. As shown, substituted sisomicin derivatives with groups other than methyl at the 6′-position have improved activity against strains expressing the AAC6′-modifying enzymes.

[5] = test system: A. calcoaceticus AACA005, AAC(6′)-I; experiment: MIC assay, aminoglycoside resistant strain; type: cell-based; set-up: unit not given beside the values; conditions: Table 3; A. calcoaceticus AAC(6′)-I
Protocol: as §4, §5

[6] = Klebsiella pneumoniae, Total MDR K. pneumoniae isolates (n = 102), read-out: MIC50
[7] = Klebsiella pneumoniae, Total MDR K. pneumoniae isolates (n = 102), read-out: MIC90
[8] = Total MDR K. pneumoniae isolates (n = 102)
[9] = K. pneumoniae producing KPC (n = 25)
[10] = K. pneumoniae producing KPC (n = 25), read-out: MIC50
[11] = K. pneumoniae producing KPC (n = 25), read-out: MIC90

## CN[C@@H]1[C@@H](O)[C@@H](O[C@@H]2[C@@H](O)[C@H](O[C@H]3OC(CN)=CC[C@H]3NC3CNC3)[C@@H](N)C[C@H]2NC(=O)[C@@H](O)CCN)OC[C@]1(C)O [Example 96, 2′-(Azetidin-3-yl)-1-(4-amino-2(S)-hydroxy-butyryl)-sisomicin]
P. aeruginosa ATCC 27853
  ED50/MIC P. aeruginosa: 3
E. coli ATCC 25922
  ED50/MIC E. Coli: <1

## CN[C@@H]1[C@@H](O)[C@@H](O[C@@H]2[C@@H](O)[C@H](O[C@H]3OC(CN)=CC[C@H]3NC(=N)N)[C@@H](N)C[C@H]2NC(=O)[C@@H](O)CCN)OC[C@]1(C)O [Example 103, 2′-Guanidinium-1-(4-amino-2(S)-hydroxy-butyryl)-sisomicin]
P. aeruginosa ATCC 27853
  ED50/MIC P. aeruginosa: 6
E. coli ATCC 25922
  ED50/MIC E. Coli: 2

## C[C@@H](O)[C@H]1C(=O)N2C(C(=O)O)=C(SCCN=CN)C[C@H]12 [Imipenem, imipenem]
[1]; [6]
  MIC50: 0.5 µg/mL (≈ 1.67 µM)
[1]; [7]
  MIC90: 8 µg/mL (≈ 26.7 µM)
[1]; [8]
  S (%), susceptible isolates: 75.5%
[1]; Total MDR K. pneumoniae isolates (n = 102), listed as imipenem
  S (%), susceptible isolates: approximately 75%
[2]; [9]
  S (%), susceptible isolates: 12.0%
[2]; [10]
  MIC50: 8 µg/mL (≈ 26.7 µM)
[2]; [11]
  MIC90: > 16 µg/mL
[3]; Escherichia coli, ATCC25922
  MIC: 0.125 µg/mL (≈ 0.418 µM)

## CNCC1=CC[C@@H](N)[C@@H](O[C@H]2C(O)[C@@H](O[C@H]3OC[C@](C)(O)[C@H](NC)[C@H]3O)[C@H](N)C[C@@H]2N)O1 (stereo partly drawn) [Mono-substituted Compound 1]
[4]
  MIC AECO040: >64
[5]
  MIC AACA005: 2
[3]
  MIC AECO001: 1

## CN[C@@H]1[C@@H](O)[C@@H](O[C@@H]2C(O)[C@H](O[C@H]3OC(CNCC4CC4)=CC[C@H]3N)[C@@H](N)C[C@H]2N)OC[C@]1(C)O (stereo partly drawn) [Mono-substituted Compound 2]
[4]
  MIC AECO040: 1
[5]
  MIC AACA005: 4
[3]
  MIC AECO001: 1

## CN[C@@H]1[C@@H](O)[C@@H](O[C@@H]2C(O)[C@H](O[C@H]3OC(CNCC4CCNCC4)=CC[C@H]3N)[C@@H](N)C[C@H]2N)OC[C@]1(C)O (stereo partly drawn) [Mono-substituted Compound 3]
[4]
  MIC AECO040: 0.25
[5]
  MIC AACA005: 0.5
[3]
  MIC AECO001: 0.5

## CN[C@@H]1[C@@H](O)[C@@H](O[C@@H]2C(O)[C@H](O[C@H]3OC(CNCCCN)=CC[C@H]3N)[C@@H](N)C[C@H]2N)OC[C@]1(C)O (stereo partly drawn) [Mono-substituted Compound 4]
[4]
  MIC AECO040: 16
[5]
  MIC AACA005: 1
[3]
  MIC AECO001: 2

## CN(C)c1cc(NC(=O)CNC(C)(C)C)c(O)c2c1C[C@H]1C[C@H]3[C@H](N(C)C)C(O)=C(C(N)=O)C(=O)[C@@]3(O)C(O)=C1C2=O [Tigecycline, tigecycline]
[1]; Klebsiella pneumoniae
  MIC50: 1 µg/mL (≈ 1.71 µM)
  MIC90: 2 µg/mL (≈ 3.41 µM)
[1]; [8]
  S (%), susceptible isolates: 90.2%
[1]; Total MDR K. pneumoniae isolates (n = 102), listed as tigecycline
  S (%), susceptible isolates: ~90%
[2]; [9]
  S (%), susceptible isolates: 96.0%
[2]
  MIC50: 1 µg/mL (≈ 1.71 µM)
  MIC90: 2 µg/mL (≈ 3.41 µM)

## NC[C@H]1O[C@H](O[C@H]2[C@H](O)[C@@H](O[C@H]3O[C@H](CO)[C@@H](O)[C@H](N)[C@H]3O)[C@H](N)C[C@@H]2N)[C@H](N)C[C@@H]1O [Tobramycin, tobramycin]
[1]; [6]
  MIC50: 32 µg/mL (≈ 68.4 µM)
[1]; [7]
  MIC90: ≥ 64 µg/mL
[1]; [8]
  MIC90: ≥64 µg/mL
  S (%), susceptible isolates: 10.8%
[2]; [9]
  S (%), susceptible isolates: 8.0%
[2]; K. pneumoniae producing KPC (n = 25), listed as tobramycin
  S (%), susceptible isolates: 8%
[2]; [10]
  MIC50: 32 µg/mL (≈ 68.4 µM)
[2]; [11]
  MIC90: ≥ 64 µg/mL

Source: patent US20190374563A1, “TREATMENT OF KLEBSIELLA PNEUMONIAE INFECTIONS WITH ANTIBACTERIAL AMINOGLYCOSIDE COMPOUNDS” (Achaogen, Inc., priority 2009, published 2019)
